Legend:
CD34+ cells = experiment: Three-stage method with SR-1 or CH223191 in Stage 1 and Stage 2 media; format: cell-based; conditions: for effects on fold expansion, cell purity (CD56+CD3−), and cytotoxicity of K562 cells: 10 μM and 1 μM, K562 at 10:1 (E:T)
Method: CD34^+ cells are cultured in the following medium formulations for the indicated number of days, and aliquots of cells are taken for assessment of cell count, cell viability, characterization of natural killer cell differentiation and functional evaluation.
Stage 1 medium: 90% Stem Cell Growth Medium (SCGM) (CellGro®), 10% Human Serum-AB, supplemented with 4.5 U/mL low molecular weight heparin (LMWH), 25 ng/mL recombinant human thrombopoietin (TPO), 25 ng/mL recombinant human Flt3L, 27 ng/mL recombinant human stem cell factor (SCF), 25 ng/mL recombinant human IL-7, 0.05 ng/mL recombinant human IL-6 (500-fold), 0.25 ng/mL recombinant human granulocyte colony-stimulating factor (G-CSF) (50-fold), 0.01 ng/mL recombinant human granulocyte-macrophage colony-stimulating factor (GM-CSF) (500-fold), 0.10% gentamicin, and 1 to 10 μm StemRegenin-1 (SR-1).
Stage 2 medium: 90% SCGM, 10% Human Serum-AB, supplemented with 4.5 U/mL low molecular weight heparin (LMWH), 25 ng/mL recombinant human Flt3L, 27 ng/mL recombinant human SCF, 25 ng/mL recombinant human IL-7, 20 ng/mL recombinant human IL-15, 0.05 ng/mL recombinant human IL-6 (500-fold), 0.25 ng/mL recombinant human G-CSF (50-fold), 0.01 ng/mL recombinant human GM-CSF (500-fold), 0.10% gentamicin, and 1 to 10 μm SR1.
Stage 3 medium: 90% […]™, 10% Human Serum-AB, 0.025 mM 2-mercaptoethanol (55 mM), supplemented with 22 ng/mL recombinant human SCF, 1000 U/mL recombinant human IL-2, 20 ng/mL recombinant human IL-7, 20 ng/mL recombinant human IL-15, 0.05 ng/mL recombinant human IL-6 (500-fold), 0.25 ng/mL recombinant human G-CSF (50-fold), 0.01 ng/mL recombinant human GM-CSF (500-fold), and 0.10% gentamicin.
Stemregenin-1 (SR-1) was evaluated as a component of Stage 1 and Stage 2 media using the three-stage method outlined in Example 1, above, at concentrations of 1 μM, 10 μM, and 30 μM. The same concentrations of CH223191 in the three-stage method were also evaluated.

three-stage NK cells = experiment: Varying third medium components, flow cytometry evaluation; format: cell-based; conditions: presence of SR1 in the third medium
Description: A flow cytometry panel (Table 7) was utilized for evaluation on days 0, 7, 14, 21, 28, and 35, including cell surface markers CD56, CD3, CD117, CD94, IL1R1, CD11a, CD34, and CD14/CD15 and intracellular markers RORγt, AHR, and perforin.

Structure (SMILES) | effects on fold expansion, cell purity (CD56+CD3−), and cytotoxicity of K562 cells (CD34+ cells) | effect on NK (CD11a+) vs ILC3 (CD11a−) cell production (three-stage NK cells) | cytotoxicity of NK cells produced (CD34+ cells; SR-1 at 10 μM in Stage 1 and Stage 2 media vs 1 μM and 30 μM)
Cc1ccccc1/N=N/c1ccc(NC(=O)c2ccnn2C)c(C)c1 [CH223191, 1-methyl-N-(2-methyl-4-(2-(2-methylphenyl)diazenyl)phenyl)-1H-pyrazole-5-carboxamide] | Comparable effects | – | –
CC(C)n1cnc2c(NCCc3ccc(O)cc3)nc(-c3csc4ccccc34)nc21 [SR-1, 4-(2-(2-(benzo[b]thien-3-yl)-9-isopropyl-9H-purin-6-ylamino)ethyl)phenol] | Comparable effects | favor NK (CD11a+) cell production | higher cytotoxicity than the other two concentrations tested
